Here are results for three compounds from patent US7183315B2, “Silver salts of sucrose-octasulphate” (Interalia S.R.L., priority 2001, dated 2007).

Data set [1] concerns Staphylococcus Aureus ATCC 6538. The data set is described as follows: Bacterial growth inhibition test by diffusion in agar (seeded by inclusion, 8 mm wells). Type of data set: cell-based. The text has this: The inhibition of bacterial growth has been, in this case, evaluated on a confluent bacterial culture of Staphylococcus aureus ATCC 6538 obtained on solid medium, according to the seeding method for inclusion. Serial dilutions of the test products, of known Ag titre, have been deposited inside 8 mm diameter wells formed in the medium in direct contact with the bacteria Staphylococcus aureus ATCC 6538. The antibacterial activity of the products under test have been evaluated, after appropriate incubations, by measuring the halos of inhibition around each well (tables 3 and 4).

For data set [2] the test system is unchanged. Briefly: Bacterial growth inhibition test in culture broth. Set-up: key to inhibition of S. aureus ATCC 6538 growth / inhibition of S. aureus ATCC 6538: − growth; + inhibition. As to conditions: for inhibition of S. aureus ATCC 6538: Table 2. Type of data set: cell-based. How it is done: Serial dilutions of known titre of the two products SOS-Ag and Katoxyn, the latter containing Ag in the form of metallic silver (silver […]® collodial chemical), have been placed directly in contact with the test microorganism (Staphylococcus Aureus ATCC 6538) for incubation in culture broth under agitation. The effect of the substances on cellular growth has been measured by evaluating the absence of turbidity in the culture medium. The anti bacterial activity has been verified by the seeding of 1 ml of culture broth in an […] medium, with observations at 7, 14, 21, 28 days from the beginning of the experiment (tables 1 and 2).

For the next data set, the system named is Pseudomonas aeruginosa. As to conditions: preservative in cosmetic preparations; cited from earlier work.
For another data set, the system named is Candida albicans. Particulars: preservative in cosmetic preparations; cited from earlier work.
The subject of a further data set is Staphylococcus aureus. As to conditions: preservative in cosmetic preparations; cited from earlier work.
Data set [3] concerns S. aureus ATCC 6538. The data set is described as follows: Diffusion method in agar, cellulose disks of 13 mm. Type of data set: cell-based, Staphylococcus aureus. Particulars: 72 hours at 37° C.
Description: (§1) The characterisation of the antibacterial activity has been carried out using the method of diffusion in agar, placing the substances in contact with confluent bacterial cultures on solid medium. The experiments have been carried out according to two distinct methods: 1) wetting sterile cellulose disks, 13 mm in diameter with 100 μl of solutions at serial dilutions of the product of known Ag titre. […] 100 μl of the solutions containing the products at known concentrations of Ag are placed on the base of the wells, and the bacteriocidal activity is observed after 72 hours of incubation at 37° C. against a blank constituted of just the solvent used for the solubilisation of the products.
In data set [4] the test system is S. aureus ATCC 6538. The data set is described as follows: Diffusion method in agar, seeded by inclusion, 8 mm wells, 72 h. Particulars: 72 hours at 37° C. Type of data set: cell-based, Staphylococcus aureus.
Description: as §1
Data set [5] in a line: Solubility of the product. Type of data set: physicochemical. Particulars: product of example 1.
A short description of data set [6]: Stability in solid state and aqueous solution. Particulars: obtained according to example 3. Type of data set: physicochemical.

As to `CC1(C)S[C@@H]2[C@H](NC(=O)[C@H](N)c3ccccc3)C(=O)N2[C@H]1C(=O)O` [ampicillin, reference compound], the Halo of inhibition in data set [1] (Concentration 5 I.U./ml, positive control) was 11 mm; in data set [1] (Concentration 10 I.U./ml, positive control) it was 20 mm; in data set [1] (Concentration 20 I.U./ml, positive control) it was 39 mm. In addition, the “inhibition of S. aureus ATCC 6538 growth” value in data set [2] (positive control, Table 1, 7 days) is “+”; in [2] (positive control, Table 1, 14 days), “+”; in data set [2] (positive control, Table 1, 21 days), “+”; in data set [2] (positive control, Table 1, 28 days) it was “+”. Besides, the “inhibition of S. aureus ATCC 6538” value in data set [2] (positive control, 7 days) was “+”; in data set [2] (positive control, 14 days) it was “+”; in data set [2] (positive control, 21 days) it was “+”; in data set [2] (positive control, 28 days), “+”.

For `[Ag]` [silver], the “concentration of silver showing activity” value in the data set on Pseudomonas aeruginosa, in the data set on Candida albicans and in the data set with Staphylococcus aureus was 10^−5 M throughout.

Regarding “silver salts of sucrose-octasulphate [SOS-Ag]”, the Halo of inhibition in data set [1] (Ag titre 1 × 10^−3 M, 8 mm wells) was 13 mm; in data set [1] (Ag titre 1 × 10^−4 M, 8 mm wells), 0 mm; in data set [1] (Ag titre 5 × 10^−4 M, 8 mm wells) it was 0 mm; with S. aureus ATCC 6538 [3] (Ag titre 10^−2 M), 15.3 mm; in the data set with S. aureus ATCC 6538 [3] (Ag titre 10^−3 M), 12 mm; in the data set on S. aureus ATCC 6538 [3] (Ag titre 10^−4 M), 0 mm. Also, the Halo of inhibition in the data set with S. aureus ATCC 6538 [3] (Ag titre 10^−5 M) was determined as 0 mm; in the data set with S. aureus ATCC 6538 [4] (Ag titre 10^−2 M) it was 14.5 mm; with S. aureus ATCC 6538 [4] (Ag titre 10^−3 M), 14 mm; with S. aureus ATCC 6538 [4] (Ag titre 10^−4 M), 0 mm; in the data set with S. aureus ATCC 6538 [4] (Ag titre 10^−5 M), 0 mm. Moreover, the “inhibition of S. aureus ATCC 6538 growth” value in data set [2] (Ag titre 1 × 10^−2 M, 7 days) is reported as “+”; in data set [2] (Ag titre 1 × 10^−2 M, 14 days) it was “+”; in [2] (Ag titre 1 × 10^−2 M, 21 days) it was “+”; in data set [2] (Ag titre 1 × 10^−2 M, 28 days), “+”; in data set [2] (Ag titre 1 × 10^−3 M, 7 days) it was “+”; in [2] (Ag titre 1 × 10^−3 M, 14 days), “+”. The “inhibition of S. aureus ATCC 6538 growth” value in data set [2] (Ag titre 1 × 10^−3 M, 21 days) is given as “+”; in data set [2] (Ag titre 1 × 10^−3 M, 28 days), “+”; in data set [2] (Ag titre 1 × 10^−4 M, 7 days), “−”; in [2] (Ag titre 1 × 10^−4 M, 14 days) it was “−”; in data set [2] (Ag titre 1 × 10^−4 M, 21 days), “−”; in data set [2] (Ag titre 1 × 10^−4 M, 28 days), “−”. Besides, the “inhibition of S. aureus ATCC 6538 growth” value in data set [2] (Ag titre 1 × 10^−5 M, 7 days) is “−”; in data set [2] (Ag titre 1 × 10^−5 M, 14 days), “−”; in [2] (Ag titre 1 × 10^−5 M, 21 days), “−”; in [2] (Ag titre 1 × 10^−5 M, 28 days) it was “−”; in [2] (Ag titre 5 × 10^−4 M, 7 days) it was “−”; in [2] (Ag titre 5 × 10^−4 M, 14 days) it was “−”. For the same compound, the “inhibition of S. aureus ATCC 6538 growth” value in data set [2] (Ag titre 5 × 10^−4 M, 21 days) is reported as “−”; in [2] (Ag titre 5 × 10^−4 M, 28 days), “−”. In addition, the “concentration of Ag at which the product has been effective / active” value in data set [2] (S. aureus ATCC 6538, summary of tables 1-4 (culture broth and agar diffusion)) amounted to 1 mM. The “Solubility in organic solvents” value in data set [5] (organic solvents) is on record as “particularly insoluable”. Besides, the Solubility in water entry in data set [5] (water) is reported as “very soluble”. The “stability in aqueous solution” value in [6] (aqueous solution) is “good stability”. The “stability in the solid state” value in [6] (solid state) was “good stability”.
